According to PubChem BioAssay AID618 (Sanford-Burnham Center for Chemical Genomics, 2007):
Activity calls are given as the source filed them. The rule behind the calls is not given here.

Tested on: MT1-MMP promoter luciferase reporter cells, luminescence
Assay: inhibitors of MT1-MMP promoter transcription, cell-based, luciferase reporter, luminescence (AID 618);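 note: actives suppress MT1-MMP promoter-driven transcription so potencies describe inhibitors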

Question: How did the EC50 turn out when Cc1cc(/C=N/n2cnnc2)c(C)n1-c1ccc(OCc2ccc(Cl)cc2Cl)cc1 was run?
Answer: 9.47 µM

Question: CCOc1ccc(C(=O)NCCc2ccccc2)cc1 was tested. Which EC50 did it give?
Answer: 2.56 µM

Question: How did the EC50 turn out when Nc1ccc2oc(-c3ccc4nc[nH]c4c3)nc2c1 was run?
Answer: 4.29 µM

Question: How did the EC50 turn out when CN(C(=O)c1ccco1)c1nc2c(s1)CCCC2 was run?
Answer: 7.12 µM

Question: For Cc1c(C(=O)NC2=NCCS2)oc2ccccc12, which EC50 is on record?
Answer: 9.29 µM

Question: NC(=O)c1c(NC(=O)c2cc3ccccc3o2)sc2c1CCC2 was tested. Which EC50 did it give?
Answer: 6.54 µM

Question: How did the EC50 turn out when Cc1ccc(-c2nc(N/N=C/c3ccncc3)c3ccccc3n2)cc1 was run?
Answer: 0.57 µM

Question: For O=C(CSc1nnc(-c2csc3c2CCCC3)o1)Nc1ccccc1, which EC50 is on record?
Answer: 4.27 µM

Question: CCCOc1ccc(-c2nnc(-c3cccs3)o2)cc1 was tested. Which EC50 did it give?
Answer: 4.37 µM

Question: With O=C1c2ccccc2C(=O)C1c1nccc2ccccc12 as the compound, how does the EC50 read?
Answer: 1.83 µM

Question: For N#C/C(=C\c1ccc(N2CCOCC2)o1)c1nc2ccccc2[nH]1, which EC50 is on record?
Answer: 4.32 µM

Question: COc1cc([N+](=O)[O-])ccc1N/C=C/C(=O)c1cccs1 was tested. Which EC50 did it give?
Answer: 2.05 µM

Question: For COc1ccc(O)c(C(=O)CC(=O)c2ccccc2)c1, which EC50 is on record?
Answer: 2.22 µM

Question: Cc1cccc(-n2ncc3c(N4CCCC4)ncnc32)c1 was tested. Which EC50 did it give?
Answer: 7.6 µM

Question: Which EC50 does the source give for CCCCN(C)C(=O)c1cc2cc3ccc(OC)cc3nc2s1 here?
Answer: 3.61 µM

Question: For O=C(/C=C\Nc1ccc2c(c1)OCO2)c1ccccn1, which EC50 is on record?
Answer: 0.23 µM

Question: COCCn1c(C)cc(C2=NNC(=Nc3ccccc3)SC2)c1C was tested. Which EC50 did it give?
Answer: 5.3 µM

Question: For c1ccc(C2=NNC(=NC3CC3)SC2)cc1, which EC50 is on record?
Answer: 1.7 µM

Question: Which EC50 does the source give for CC(=O)c1sc(NC(=O)C2COc3ccccc3O2)nc1C (stereo not drawn) here?
Answer: 5.39 µM

Question: Cc1ccc(C(=O)Nc2cccc(C(=O)O)c2)cc1S(=O)(=O)N1CCCCC1 was tested. Which EC50 did it give?
Answer: 7.25 µM

Question: How did the EC50 turn out when O=C(CSc1nnc(-c2ccccc2)o1)Nc1ccccc1F was run?
Answer: 0.82 µM

Question: How did the EC50 turn out when Cc1ccc(C(=O)COC(=O)c2cccs2)cc1 was run?
Answer: 18.6 µM

Question: Which EC50 does the source give for O=C(c1ccc(Cl)cc1)N1CCCCC(Sc2nnc(-c3ccc4c(c3)OCO4)o2)C1=O (stereo not drawn) here?
Answer: 0.14 µM

Question: How did the EC50 turn out when CC(=O)Nc1ccc(OC(=O)N2CCCCC2)cc1 was run?
Answer: > 50 µM (inactive)

Question: With Nc1ccc(-c2nc3c(Cl)cc(N)cc3[nH]2)cc1 as the compound, how does the EC50 read?
Answer: 10.7 µM

Question: For CCOc1ccc(OCc2ccc(C(=O)OCc3ccccn3)o2)cc1, which EC50 is on record?
Answer: 3.05 µM

Question: Which EC50 does the source give for COC(=O)c1nn(-c2ccc3c(c2)CCN3C(C)=O)cc1O here?
Answer: 0.61 µM

Question: For Cc1ccc(CNc2nc3ccccc3s2)s1, which EC50 is on record?
Answer: 1.67 µM

Question: O=C(COc1ccc(CO)cc1Cl)Nc1ccc(F)cc1 was tested. Which EC50 did it give?
Answer: 3.02 µM

Question: Which EC50 does the source give for O=C(Nc1ccccn1)c1cc2ccccc2o1 here?
Answer: > 50 µM (inactive)

Question: How did the EC50 turn out when N#Cc1cc2c(nc1SCC(=O)Nc1nccs1)CCCCC2 was run?
Answer: 7.77 µM

Question: For CN1CCN(CC(=O)N2CCn3c4c(c5cc(C6CCCCC6)ccc53)CCCC42)CC1 (stereo not drawn), which EC50 is on record?
Answer: 12 µM

Question: O=c1c2c(nc3cc(-c4ccc(F)cc4)[nH]n13)CCCC2 was tested. Which EC50 did it give?
Answer: 6.48 µM

Question: With Cc1cc(C(=O)CSc2nc3ccccc3[nH]2)c(C)n1CC1CCCO1 (stereo not drawn) as the compound, how does the EC50 read?
Answer: 3.86 µM

Question: For CN(C)c1nc(-c2ccccn2)nnc1-c1ccccc1, which EC50 is on record?
Answer: > 50 µM (inactive)

Question: For CC(C)c1ccc2oc(-c3ccc(N)cc3)nc2c1, which EC50 is on record?
Answer: 1.66 µM

Question: Which EC50 does the source give for COC(=O)Cc1ccc(NC(=O)c2ccc(C(C)(C)C)cc2)cc1 here?
Answer: 0.31 µM

Question: Clc1cccc(-c2nnc(-c3ccccc3)o2)c1 was tested. Which EC50 did it give?
Answer: 7.03 µM

Question: For CC(C)(C)c1ccc(-c2nc(-c3ccncc3)no2)cc1, which EC50 is on record?
Answer: 6.13 µM

Question: With O=C(O)c1cccc(C(=O)Nc2cccc(NC(=O)C3CCCO3)c2)c1 (stereo not drawn) as the compound, how does the EC50 read?
Answer: 10.1 µM

Question: Which EC50 does the source give for COc1ccc(C(=O)Nn2c(SCC(=O)NCc3ccco3)nc3ccccc3c2=O)cc1 here?
Answer: 1.14 µM

Question: Which EC50 does the source give for COc1ccc(-c2nsc3c(N4CCCCC4)ncnc23)cc1 here?
Answer: 0.27 µM

Question: For COc1ccc(NC(=O)c2cc3ccccn3n2)cc1, which EC50 is on record?
Answer: 4.38 µM

Question: Cc1ccc(C(=O)CSc2nnnn2C(C)C)c(C)c1 was tested. Which EC50 did it give?
Answer: 1.7 µM

Question: For CC(C)(C)c1ccc(C(=O)Nc2ccc(CC(=O)O)cc2)o1, which EC50 is on record?
Answer: 0.23 µM

Question: For Cc1ccc(-c2nc(-c3ccccc3)no2)cc1, which EC50 is on record?
Answer: 2.87 µM

Question: Which EC50 does the source give for CCOC(=O)/C(=C\c1ccccc1)C(=O)c1cc(C(C)=O)c(Nc2ccccc2)s1 here?
Answer: 14.4 µM

Question: Which EC50 does the source give for O=C(Nc1nccs1)c1cc2c(s1)CCCCC2 here?
Answer: 0.55 µM

Question: With COc1cccc(C(=O)NCCC2=CCCCC2)c1 as the compound, how does the EC50 read?
Answer: 8.74 µM

Question: With CCCCCCOc1ccc(CN2CCN(CCO)CC2)cc1 as the compound, how does the EC50 read?
Answer: 12.1 µM

Question: Which EC50 does the source give for CNc1nnc(-c2ccc(N(C)C)cc2)s1 here?
Answer: 5.1 µM

Question: For Clc1c(CSc2nc3ccccc3o2)nc2ccccn12, which EC50 is on record?
Answer: 12.1 µM

Question: How did the EC50 turn out when CCOc1ccc(-c2nnc(-c3ccco3)o2)cc1 was run?
Answer: 1.42 µM

Question: With CCCCCc1ccc(-c2ccc(C(=O)O)cc2)nc1 as the compound, how does the EC50 read?
Answer: 3.53 µM

Question: For CCCCc1ccc(-c2nc(-c3ccncc3)no2)cc1, which EC50 is on record?
Answer: 13.4 µM

Question: Which EC50 does the source give for CCCc1ccc(-c2ccc(F)c(N)c2)nc1 here?
Answer: 0.66 µM

Question: How did the EC50 turn out when CC(C)CNC(=O)c1coc(=O)c(Br)c1 was run?
Answer: 18.5 µM

Question: Which EC50 does the source give for CC(=O)N(Cc1ccc(F)cc1)C1=C(NCCc2ccccc2)C(=O)c2ccccc2C1=O here?
Answer: 12.2 µM

Question: Which EC50 does the source give for Fc1ccccc1OCCSc1nnnn1-c1ccccc1 here?
Answer: 12.7 µM

Question: Cc1ccc(O)c(/C=N/NC(=O)C2=NNC(c3ccccc3)(c3ccccc3)C2)c1 was tested. Which EC50 did it give?
Answer: 19 µM

Question: Which EC50 does the source give for COc1ccc(S(=O)(=O)N2CCN(C(=O)CCC3CCCC3)CC2)cc1 here?
Answer: > 50 µM (inactive)

Question: For C=CCNc1ncnc2c1cnn2-c1ccc(OC)cc1, which EC50 is on record?
Answer: 8.5 µM

Question: CCOC(=O)CCS(=O)(=O)c1nc(-c2ccccc2)cc(C(F)(F)F)n1 was tested. Which EC50 did it give?
Answer: 15.7 µM
